Assay [1] concerns DIO mice. Briefly: In vivo assay in DIO mice (OGTT, insulin, body weight, NMR body composition). How it is done:
Fifty (50) diet induced obese (DIO) C57BL/6J male mice were received from JAX labs at 6 wks of age. The mice were ear notched for identification and housed […] in positively ventilated polycarbonate cages with HEPA filtered air at a density of 5 mice per cage. The animal room was lit entirely with artificial fluorescent lighting, with a controlled 12 h light/dark cycle. The normal temperature and relative humidity ranges in the animal rooms were 22±4° C. and 50±15%, respectively. Filtered tap water, acidified to a pH of 2.8 to 3.1, and high fat diet (Research Diets D12492; 60 kcal %) was provided ad libitum.
Following a 2 week acclimation, 50 mice were randomized into groups (n=10) as below. Group 1. Vehicle treated; Group 2. Low dose EU-A994; Group 3. high dose EU-A594; Group 4. low dose EU-A1024; Group 5. high dose EU-A1024. Mice were dosed via SC on days 1 (0, 7 hrs.), 3, 6, 9, 12, 15, 18, 21, 24. Body weights and cage side observations were recorded daily. Food and water intake was recorded weekly. Mice underwent NMR measurements for determining whole body fat and lean composition on days 1 (pre-dose) and 26. On day 26, mice were fasted overnight for an oral glucose tolerance test. Next day, the first blood sample was collected via tail nick (t=0). Mice were then administered a bolus of 1.0 g/kg glucose. Blood samples were obtained via tail nick at 0, 15, 30, 60, 90 and 120 min after glucose and plasma glucose was immediately determined using a glucometer.
Sacrifice and tissue collection: Mice were sacrificed on day 28. Terminal blood was processed to serum/plasma and aliquots were sent for analysis of glucose, insulin and lipid profile. Body composition was determined by NMR.

Assay [2] concerns the target T1, GLP-1 R (Homo sapiens, UniProt P43220).
T1 construct: host or cells: CHO cells
Briefly: DiscoveRx LeadHunter cellular assay, cAMP stimulation, GLP-1 receptor. It is filed as cell-based. To be noted: human receptor cloned into CHO cells.
Method: (§1) A further series of cellular assays were carried out using standard cellular assays (DiscoveRx, LeadHunter assays) using readout of cAMP stimulation or arrestin activation. Compounds were weighed precisely in an amount of approximately 1 mg and shipped to DiscoveRx for dilution and assay.

The target in assay [3] is T2, glucagon R (Homo sapiens, UniProt P47871).
T2 construct: host or cells: CHO cells
Briefly: DiscoveRx LeadHunter cellular assay, cAMP stimulation, glucagon receptor. To be noted: human receptor cloned into CHO cells. It is filed as cell-based.
Method: as §1

pEC50: −log10 of the molar value.

T1 sequence (P43220 24-463): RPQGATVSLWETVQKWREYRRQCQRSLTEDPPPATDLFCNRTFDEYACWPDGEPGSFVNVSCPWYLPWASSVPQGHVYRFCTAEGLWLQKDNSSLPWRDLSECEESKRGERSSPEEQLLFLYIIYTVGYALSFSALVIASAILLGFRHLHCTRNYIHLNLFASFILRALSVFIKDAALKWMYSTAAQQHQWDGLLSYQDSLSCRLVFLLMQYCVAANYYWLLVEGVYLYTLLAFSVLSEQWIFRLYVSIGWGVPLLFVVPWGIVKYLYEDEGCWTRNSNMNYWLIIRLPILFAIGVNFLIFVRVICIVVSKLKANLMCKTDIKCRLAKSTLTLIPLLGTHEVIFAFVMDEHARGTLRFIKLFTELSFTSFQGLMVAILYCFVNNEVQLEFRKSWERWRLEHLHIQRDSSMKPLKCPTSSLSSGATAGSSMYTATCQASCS
T2 sequence (P47871 26-477): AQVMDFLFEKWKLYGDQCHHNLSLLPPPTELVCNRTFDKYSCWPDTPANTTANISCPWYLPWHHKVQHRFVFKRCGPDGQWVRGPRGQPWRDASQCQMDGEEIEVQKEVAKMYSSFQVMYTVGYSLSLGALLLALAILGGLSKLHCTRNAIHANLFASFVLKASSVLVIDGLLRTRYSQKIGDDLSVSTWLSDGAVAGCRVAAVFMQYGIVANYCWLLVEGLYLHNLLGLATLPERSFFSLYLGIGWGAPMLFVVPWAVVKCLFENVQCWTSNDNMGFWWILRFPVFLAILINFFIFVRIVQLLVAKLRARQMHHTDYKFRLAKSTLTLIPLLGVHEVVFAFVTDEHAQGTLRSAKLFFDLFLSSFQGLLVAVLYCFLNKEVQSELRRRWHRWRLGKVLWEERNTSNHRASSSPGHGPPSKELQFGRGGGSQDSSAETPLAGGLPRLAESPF

As for `CCCCCCCCCCCCCCO[C@@H]1O[C@H](CO[C@H]2O[C@H](C(=O)NCCCC[C@H](NC(=O)[C@@H](NC(=O)[C@H](Cc3ccccc3)NC(=O)[C@H](CCC(=O)O)NC(=O)[C@@H]3CCCCNC(=O)CC[C@H](NC(=O)[C@H](CC(=O)O)NC(=O)[C@H](CC(C)C)NC(=O)[C@H](Cc4ccc(O)cc4)NC(=O)[C@H](CCCCN)NC(=O)[C@H](CO)NC(=O)[C@H](Cc4ccc(O)cc4)NC(=O)[C@H](CC(=O)O)NC(=O)[C@H](CO)NC(=O)[C@@H](NC(=O)[C@H](Cc4ccccc4)NC(=O)[C@@H](NC(=O)CNC(=O)[C@H](CCC(N)=O)NC(=O)C(C)(C)NC(=O)[C@@H](N)Cc4c[nH]cn4)[C@@H](C)O)[C@@H](C)O)C(=O)N[C@@H](CCC(N)=O)C(=O)N[C@@H](C)C(=O)N[C@@H](C)C(=O)N3)[C@@H](C)CC)C(=O)N[C@@H](Cc3c[nH]c4ccccc34)C(=O)N[C@@H](CC(C)C)C(=O)N[C@@H](CC(C)C)C(=O)N[C@@H](CCC(N)=O)C(=O)N[C@H](C(N)=O)[C@@H](C)O)[C@H](O)[C@H](O)[C@H]2O)[C@@H](O)[C@H](O)[C@H]1O` [EU-A1024, His1-Aib2-Gln3-Gly4-Thr5-Phe6-Thr7-Ser8-Asp9-Tyr10-Ser11-Lys12-Tyr13-Leu14-Asp15-Glu*16-Gln17 Ala18-Ala19-Lys*20-Glu21-Phe22-Ile23-Lys (N-omega (1-tetradecyl beta-D-melibiouronyl)) 24-Trp25-Leu26-Leu27-Gln28-Thr29-NH2], in assay [1] (NMR (FIG. 11)), the fat mass entry is “decreased fat mass” and the lean mass result was “minimal effects on lean mass”. Besides, in assay [1] (SC dosing days 1-24), the basal insulin secretion entry is “decreased basal insulin secretion” and the glucose-dependent insulin secretion entry is “potentiated glucose-dependent insulin secretion”. In addition, in assay [1] (SC dosing days 1-24 (FIG. 10)), the weight gain entry is recorded as “decreased weight gain”. Further, in assay [1] (SC dosing days 1-24, OGTT 1.0 g/kg glucose), the “glucose excursion in the OGTT” value is listed as “decreased glucose excursion”.

As usually defined, the pEC50 is the EC50 on a negative log10 scale, so that one unit is a factor of ten. The low end stands for a large EC50, the high end for a small EC50. On to `CCCCCCCCCCCCCCO[C@H]1O[C@H](CO[C@H]2O[C@H](C(=O)NCCCC[C@@H]3NC(=O)[C@@H](NC(=O)[C@H](CC(=O)O)NC(=O)[C@H](CC(C)C)NC(=O)[C@H](Cc4ccc(O)cc4)NC(=O)[C@H](CCCCN)NC(=O)[C@H](CO)NC(=O)[C@H](Cc4ccc(O)cc4)NC(=O)[C@H](CC(=O)O)NC(=O)[C@H](CO)NC(=O)[C@@H](NC(=O)[C@H](Cc4ccccc4)NC(=O)[C@@H](NC(=O)CNC(=O)[C@H](CCC(N)=O)NC(=O)C(C)(C)NC(=O)[C@@H](N)Cc4c[nH]cn4)[C@@H](C)O)[C@@H](C)O)CCC(=O)NCCCC[C@@H](C(=O)N[C@@H](CCC(=O)O)C(=O)N[C@@H](Cc4ccccc4)C(=O)N[C@H](C(=O)N[C@@H](CCC(N)=O)C(=O)N[C@@H](Cc4c[nH]c5ccccc45)C(=O)N[C@@H](CC(C)C)C(=O)N[C@@H](CC(C)C)C(=O)N[C@@H](CCC(N)=O)C(=O)N[C@H](C(N)=O)[C@@H](C)O)[C@@H](C)CC)NC(=O)[C@H](C)NC(=O)[C@H](C)NC3=O)[C@H](O)[C@H](O)[C@H]2O)[C@@H](O)[C@H](O)[C@H]1O` [EU-A1587, His1-Aib2-Gln3-Gly4-Thr5-Phe6-Thr7-Ser8-Asp9-Tyr10-Ser11-Lys12-Tyr13-Leu14-Asp15-Glu*16-Lys (N-omega (1-tetradecyl alpha-D-melibiouronyl)) 17 Ala18-Ala19-Lys*20-Glu21-Phe22-Ile23-Gln24-Trp25-Leu26-Leu27-Gln28-Thr29-NH2], for which the figures for the pEC50 in assay [2] and in assay [3] were 10.09 and 9.60, respectively.
